# According to PubChem BioAssay AID1918994 (Molecular Pharmacology Branch, DTP, NCI, 2023):
# Tested on: 292921-168-R-J2-PDC complex spheroid growth
# Assay: Anticancer human tumor 292921-168-R-J2-PDC patient-derived pancreatic carcinoma cell line growth inhibition [AhR]
# Settings: curve of first compound; second compound 0.1 µM
# How it was run: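 Complex tumor spheroids co-cultured with HUVEC and human MSC stroma; AhR antagonists tested in combination with standard-of-care and investigational agents. Top concentration at or near clinical Cmax (else 10 microM), half-log dilutions; growth expressed as percent test/control.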
# 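Note: spheroids exposed to compounds for seven days after three days of growth.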
row,SMILES,IC50 [µM]
1,CC[C@@]1(O)C(=O)OCc2c1cc1n(c2=O)Cc2cc3c(CN(C)C)c(O)ccc3nc2-1 + Cc1cncc(-c2nc(NCCc3c[nH]c4ccccc34)c3ncn(C(C)C)c3n2)c1,0.0392
2,COc1cc(C2c3cc4c(cc3C(OC3OC5COC(C)OC5C(O)C3O)C3COC(=O)C23)OCO4)cc(OC)c1O (centres undefined) + Cc1cncc(-c2nc(NCCc3c[nH]c4ccccc34)c3ncn(C(C)C)c3n2)c1,0.565
3,COc1cccc2c1C(=O)c1c(O)c3c(c(O)c1C2=O)CC(O)(C(=O)CO)CC3OC1CC(N)C(O)C(C)O1 (centres undefined) + Cc1cncc(-c2nc(NCCc3c[nH]c4ccccc34)c3ncn(C(C)C)c3n2)c1,< 0.0316
4,Nc1ccn(C2OC(CO)C(O)C2(F)F)c(=O)n1 (centres undefined) + Cc1cncc(-c2nc(NCCc3c[nH]c4ccccc34)c3ncn(C(C)C)c3n2)c1,< 0.0316
5,Nc1ncn(C2CC(O)C(CO)O2)c(=O)n1 (centres undefined) + Cc1cncc(-c2nc(NCCc3c[nH]c4ccccc34)c3ncn(C(C)C)c3n2)c1,> 1

# Same assay, conditions: curve of first compound; second compound 0.316 µM
row,SMILES,IC50 [µM]
1,CC[C@@]1(O)C(=O)OCc2c1cc1n(c2=O)Cc2cc3c(CN(C)C)c(O)ccc3nc2-1 + Cc1cncc(-c2nc(NCCc3c[nH]c4ccccc34)c3ncn(C(C)C)c3n2)c1,0.0281
2,COc1cc(C2c3cc4c(cc3C(OC3OC5COC(C)OC5C(O)C3O)C3COC(=O)C23)OCO4)cc(OC)c1O (centres undefined) + Cc1cncc(-c2nc(NCCc3c[nH]c4ccccc34)c3ncn(C(C)C)c3n2)c1,0.581
3,COc1cccc2c1C(=O)c1c(O)c3c(c(O)c1C2=O)CC(O)(C(=O)CO)CC3OC1CC(N)C(O)C(C)O1 (centres undefined) + Cc1cncc(-c2nc(NCCc3c[nH]c4ccccc34)c3ncn(C(C)C)c3n2)c1,< 0.0316
4,Nc1ccn(C2OC(CO)C(O)C2(F)F)c(=O)n1 (centres undefined) + Cc1cncc(-c2nc(NCCc3c[nH]c4ccccc34)c3ncn(C(C)C)c3n2)c1,< 0.0316
5,Nc1ncn(C2CC(O)C(CO)O2)c(=O)n1 (centres undefined) + Cc1cncc(-c2nc(NCCc3c[nH]c4ccccc34)c3ncn(C(C)C)c3n2)c1,> 1

# Same assay, conditions: curve of first compound; second compound 1 µM
row,SMILES,IC50 [µM]
1,CC[C@@]1(O)C(=O)OCc2c1cc1n(c2=O)Cc2cc3c(CN(C)C)c(O)ccc3nc2-1 + Cc1cncc(-c2nc(NCCc3c[nH]c4ccccc34)c3ncn(C(C)C)c3n2)c1,0.0302
2,COc1cc(C2c3cc4c(cc3C(OC3OC5COC(C)OC5C(O)C3O)C3COC(=O)C23)OCO4)cc(OC)c1O (centres undefined) + Cc1cncc(-c2nc(NCCc3c[nH]c4ccccc34)c3ncn(C(C)C)c3n2)c1,0.289
3,COc1cccc2c1C(=O)c1c(O)c3c(c(O)c1C2=O)CC(O)(C(=O)CO)CC3OC1CC(N)C(O)C(C)O1 (centres undefined) + Cc1cncc(-c2nc(NCCc3c[nH]c4ccccc34)c3ncn(C(C)C)c3n2)c1,< 0.0316
4,Nc1ccn(C2OC(CO)C(O)C2(F)F)c(=O)n1 (centres undefined) + Cc1cncc(-c2nc(NCCc3c[nH]c4ccccc34)c3ncn(C(C)C)c3n2)c1,< 0.0316
5,Nc1ncn(C2CC(O)C(CO)O2)c(=O)n1 (centres undefined) + Cc1cncc(-c2nc(NCCc3c[nH]c4ccccc34)c3ncn(C(C)C)c3n2)c1,> 1

# Same assay, conditions: curve of first compound; second compound 3.16 µM
row,SMILES,IC50 [µM]
1,CC[C@@]1(O)C(=O)OCc2c1cc1n(c2=O)Cc2cc3c(CN(C)C)c(O)ccc3nc2-1 + Cc1cncc(-c2nc(NCCc3c[nH]c4ccccc34)c3ncn(C(C)C)c3n2)c1,0.021
2,COc1cc(C2c3cc4c(cc3C(OC3OC5COC(C)OC5C(O)C3O)C3COC(=O)C23)OCO4)cc(OC)c1O (centres undefined) + Cc1cncc(-c2nc(NCCc3c[nH]c4ccccc34)c3ncn(C(C)C)c3n2)c1,0.261
3,COc1cccc2c1C(=O)c1c(O)c3c(c(O)c1C2=O)CC(O)(C(=O)CO)CC3OC1CC(N)C(O)C(C)O1 (centres undefined) + Cc1cncc(-c2nc(NCCc3c[nH]c4ccccc34)c3ncn(C(C)C)c3n2)c1,< 0.0316
4,Nc1ccn(C2OC(CO)C(O)C2(F)F)c(=O)n1 (centres undefined) + Cc1cncc(-c2nc(NCCc3c[nH]c4ccccc34)c3ncn(C(C)C)c3n2)c1,< 0.0316
5,Nc1ncn(C2CC(O)C(CO)O2)c(=O)n1 (centres undefined) + Cc1cncc(-c2nc(NCCc3c[nH]c4ccccc34)c3ncn(C(C)C)c3n2)c1,> 1

# Same assay, conditions: curve of first compound; second compound 10 µM
row,SMILES,IC50 [µM]
1,CC[C@@]1(O)C(=O)OCc2c1cc1n(c2=O)Cc2cc3c(CN(C)C)c(O)ccc3nc2-1 + Cc1cncc(-c2nc(NCCc3c[nH]c4ccccc34)c3ncn(C(C)C)c3n2)c1,0.00119
2,COc1cc(C2c3cc4c(cc3C(OC3OC5COC(C)OC5C(O)C3O)C3COC(=O)C23)OCO4)cc(OC)c1O (centres undefined) + Cc1cncc(-c2nc(NCCc3c[nH]c4ccccc34)c3ncn(C(C)C)c3n2)c1,< 0.0316
3,COc1cccc2c1C(=O)c1c(O)c3c(c(O)c1C2=O)CC(O)(C(=O)CO)CC3OC1CC(N)C(O)C(C)O1 (centres undefined) + Cc1cncc(-c2nc(NCCc3c[nH]c4ccccc34)c3ncn(C(C)C)c3n2)c1,< 0.0316
4,Nc1ccn(C2OC(CO)C(O)C2(F)F)c(=O)n1 (centres undefined) + Cc1cncc(-c2nc(NCCc3c[nH]c4ccccc34)c3ncn(C(C)C)c3n2)c1,< 0.0316
5,Nc1ncn(C2CC(O)C(CO)O2)c(=O)n1 (centres undefined) + Cc1cncc(-c2nc(NCCc3c[nH]c4ccccc34)c3ncn(C(C)C)c3n2)c1,0.00968

# Same assay, conditions: second compound 0.1 µM; first compound 0.000316 µM; stronger effect = lower value
row,SMILES,"viability, T/C [%]"
1,CC[C@@]1(O)C(=O)OCc2c1cc1n(c2=O)Cc2cc3c(CN(C)C)c(O)ccc3nc2-1 + Cc1cncc(-c2nc(NCCc3c[nH]c4ccccc34)c3ncn(C(C)C)c3n2)c1,90.2

# Same assay, conditions: second compound 0.1 µM; first compound 0.001 µM; stronger effect = lower value
row,SMILES,"viability, T/C [%]"
1,CC[C@@]1(O)C(=O)OCc2c1cc1n(c2=O)Cc2cc3c(CN(C)C)c(O)ccc3nc2-1 + Cc1cncc(-c2nc(NCCc3c[nH]c4ccccc34)c3ncn(C(C)C)c3n2)c1,90.4

# Same assay, conditions: second compound 0.1 µM; first compound 0.00316 µM; stronger effect = lower value
row,SMILES,"viability, T/C [%]"
1,CC[C@@]1(O)C(=O)OCc2c1cc1n(c2=O)Cc2cc3c(CN(C)C)c(O)ccc3nc2-1 + Cc1cncc(-c2nc(NCCc3c[nH]c4ccccc34)c3ncn(C(C)C)c3n2)c1,89.5
2,Nc1ncn(C2CC(O)C(CO)O2)c(=O)n1 (centres undefined) + Cc1cncc(-c2nc(NCCc3c[nH]c4ccccc34)c3ncn(C(C)C)c3n2)c1,99.6

# Same assay, conditions: second compound 0.1 µM; first compound 0.01 µM; stronger effect = lower value
row,SMILES,"viability, T/C [%]"
1,CC[C@@]1(O)C(=O)OCc2c1cc1n(c2=O)Cc2cc3c(CN(C)C)c(O)ccc3nc2-1 + Cc1cncc(-c2nc(NCCc3c[nH]c4ccccc34)c3ncn(C(C)C)c3n2)c1,68.1
2,Nc1ncn(C2CC(O)C(CO)O2)c(=O)n1 (centres undefined) + Cc1cncc(-c2nc(NCCc3c[nH]c4ccccc34)c3ncn(C(C)C)c3n2)c1,100

# Same assay, conditions: second compound 0.1 µM; first compound 0.0316 µM; stronger effect = lower value
row,SMILES,"viability, T/C [%]"
1,CC[C@@]1(O)C(=O)OCc2c1cc1n(c2=O)Cc2cc3c(CN(C)C)c(O)ccc3nc2-1 + Cc1cncc(-c2nc(NCCc3c[nH]c4ccccc34)c3ncn(C(C)C)c3n2)c1,58.9
2,COc1cc(C2c3cc4c(cc3C(OC3OC5COC(C)OC5C(O)C3O)C3COC(=O)C23)OCO4)cc(OC)c1O (centres undefined) + Cc1cncc(-c2nc(NCCc3c[nH]c4ccccc34)c3ncn(C(C)C)c3n2)c1,92.6
3,COc1cccc2c1C(=O)c1c(O)c3c(c(O)c1C2=O)CC(O)(C(=O)CO)CC3OC1CC(N)C(O)C(C)O1 (centres undefined) + Cc1cncc(-c2nc(NCCc3c[nH]c4ccccc34)c3ncn(C(C)C)c3n2)c1,30.9
4,Nc1ccn(C2OC(CO)C(O)C2(F)F)c(=O)n1 (centres undefined) + Cc1cncc(-c2nc(NCCc3c[nH]c4ccccc34)c3ncn(C(C)C)c3n2)c1,8.94
5,Nc1ncn(C2CC(O)C(CO)O2)c(=O)n1 (centres undefined) + Cc1cncc(-c2nc(NCCc3c[nH]c4ccccc34)c3ncn(C(C)C)c3n2)c1,84

# Same assay, conditions: second compound 0.1 µM; first compound 0.1 µM; stronger effect = lower value
row,SMILES,"viability, T/C [%]"
1,CC[C@@]1(O)C(=O)OCc2c1cc1n(c2=O)Cc2cc3c(CN(C)C)c(O)ccc3nc2-1 + Cc1cncc(-c2nc(NCCc3c[nH]c4ccccc34)c3ncn(C(C)C)c3n2)c1,23.3
2,COc1cc(C2c3cc4c(cc3C(OC3OC5COC(C)OC5C(O)C3O)C3COC(=O)C23)OCO4)cc(OC)c1O (centres undefined) + Cc1cncc(-c2nc(NCCc3c[nH]c4ccccc34)c3ncn(C(C)C)c3n2)c1,92.2
3,COc1cccc2c1C(=O)c1c(O)c3c(c(O)c1C2=O)CC(O)(C(=O)CO)CC3OC1CC(N)C(O)C(C)O1 (centres undefined) + Cc1cncc(-c2nc(NCCc3c[nH]c4ccccc34)c3ncn(C(C)C)c3n2)c1,25.2
4,Nc1ccn(C2OC(CO)C(O)C2(F)F)c(=O)n1 (centres undefined) + Cc1cncc(-c2nc(NCCc3c[nH]c4ccccc34)c3ncn(C(C)C)c3n2)c1,10.1
5,Nc1ncn(C2CC(O)C(CO)O2)c(=O)n1 (centres undefined) + Cc1cncc(-c2nc(NCCc3c[nH]c4ccccc34)c3ncn(C(C)C)c3n2)c1,89.6

# Same assay, conditions: second compound 0.1 µM; first compound 0.316 µM; stronger effect = lower value
row,SMILES,"viability, T/C [%]"
1,COc1cc(C2c3cc4c(cc3C(OC3OC5COC(C)OC5C(O)C3O)C3COC(=O)C23)OCO4)cc(OC)c1O (centres undefined) + Cc1cncc(-c2nc(NCCc3c[nH]c4ccccc34)c3ncn(C(C)C)c3n2)c1,64
2,COc1cccc2c1C(=O)c1c(O)c3c(c(O)c1C2=O)CC(O)(C(=O)CO)CC3OC1CC(N)C(O)C(C)O1 (centres undefined) + Cc1cncc(-c2nc(NCCc3c[nH]c4ccccc34)c3ncn(C(C)C)c3n2)c1,9.88
3,Nc1ccn(C2OC(CO)C(O)C2(F)F)c(=O)n1 (centres undefined) + Cc1cncc(-c2nc(NCCc3c[nH]c4ccccc34)c3ncn(C(C)C)c3n2)c1,9.38
